Test system: 855422-203-R-J1-PDC complex spheroid viability
Assay: Anticancer human tumor 855422-203-R-J1-PDC patient-derived bladder carcinoma cell line growth inhibition
Settings: for IC50: curve of first compound; for viability, T/C: stronger effect = lower value
In short: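 Multicellular complex spheroids of tumor cells with human endothelial cells (HUVEC) and mesenchymal stem cells; the LSD1 inhibitor iadademstat was combined with standard-of-care or investigational agents. Top concentration at or near clinical Cmax, half-log dilutions; final DMSO ≤0.25%.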

[1] = second compound 0.1 µM, first compound 0.0316 µM
[2] = second compound 0.1 µM, first compound 0.1 µM
[3] = second compound 0.1 µM, first compound 0.316 µM
[4] = second compound 0.1 µM, first compound 1 µM
[5] = second compound 0.1 µM, first compound 3.16 µM
[6] = second compound 0.1 µM, first compound 10 µM
[7] = second compound 0.316 µM, first compound 0.0316 µM
[8] = second compound 0.316 µM, first compound 0.1 µM
[9] = second compound 0.316 µM, first compound 0.316 µM
[10] = second compound 0.316 µM, first compound 1 µM
[11] = second compound 0.316 µM, first compound 3.16 µM
[12] = second compound 0.316 µM, first compound 10 µM
[13] = second compound 1 µM, first compound 0.0316 µM
[14] = second compound 1 µM, first compound 0.1 µM
[15] = second compound 1 µM, first compound 0.316 µM
[16] = second compound 1 µM, first compound 1 µM
[17] = second compound 1 µM, first compound 3.16 µM
[18] = second compound 1 µM, first compound 10 µM
[19] = second compound 3.16 µM, first compound 0.0316 µM
[20] = second compound 3.16 µM, first compound 0.1 µM
[21] = second compound 3.16 µM, first compound 0.316 µM
[22] = second compound 3.16 µM, first compound 1 µM
[23] = second compound 3.16 µM, first compound 3.16 µM
[24] = second compound 3.16 µM, first compound 10 µM
[25] = second compound 10 µM, first compound 0.0316 µM
[26] = second compound 10 µM, first compound 0.1 µM
[27] = second compound 10 µM, first compound 0.316 µM
[28] = second compound 10 µM, first compound 1 µM
[29] = second compound 10 µM, first compound 3.16 µM
[30] = second compound 10 µM, first compound 10 µM
[31] = second compound 0.1 µM, first compound 0.00316 µM
[32] = second compound 0.1 µM, first compound 0.01 µM
[33] = second compound 0.316 µM, first compound 0.00316 µM
[34] = second compound 0.316 µM, first compound 0.01 µM
[35] = second compound 1 µM, first compound 0.00316 µM
[36] = second compound 1 µM, first compound 0.01 µM
[37] = second compound 3.16 µM, first compound 0.00316 µM
[38] = second compound 3.16 µM, first compound 0.01 µM
[39] = second compound 10 µM, first compound 0.00316 µM
[40] = second compound 10 µM, first compound 0.01 µM
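Note: drug exposure lasted 7 days starting on day 3 after seeding.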
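Throughout, for viability, T/C: luminescence viability as percent of DMSO vehicle wells = 100%.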

Structure (SMILES) | IC50 (second compound 0.1 µM) [nM] | IC50 (second compound 0.316 µM) [nM] | IC50 (second compound 1 µM) [nM] | IC50 (second compound 3.16 µM) [nM] | IC50 (second compound 10 µM) [nM] | viability, T/C [1] [%] | viability, T/C [2] [%] | viability, T/C [3] [%] | viability, T/C [4] [%] | viability, T/C [7] [%] | viability, T/C [8] [%] | viability, T/C [9] [%] | viability, T/C [10] [%] | viability, T/C [13] [%] | viability, T/C [14] [%] | viability, T/C [15] [%] | viability, T/C [16] [%] | viability, T/C [19] [%] | viability, T/C [20] [%] | viability, T/C [21] [%] | also measured
CC(C)c1c(-c2ccccc2)nc2c(C#N)c[nH]n2c1=O + NC1CC1c1ccc(-c2cccc(O)c2)cc1 | > 10000 | > 10000 | > 10000 | > 10000 | > 10000 | 96.8 | 109 | 93.8 | 95.7 | 98.2 | 94.7 | 99.7 | 87.4 | 96.5 | 102 | 93.6 | 86.2 | 98.8 | 96 | 94.2 | viability, T/C [5]: 95.5%; viability, T/C [6]: 86.2%; viability, T/C [11]: 88%; viability, T/C [12]: 83.6%; viability, T/C [17]: 90.5%; viability, T/C [18]: 80.4%; viability, T/C [22]: 88.9%; viability, T/C [23]: 86.1%; viability, T/C [24]: 83.7%; viability, T/C [25]: 86.1%; viability, T/C [26]: 86.6%; viability, T/C [27]: 88.7%; viability, T/C [28]: 86.9%; viability, T/C [29]: 81.3%; viability, T/C [30]: 73.9%
CC1COCCN1c1cc(-c2ccnn2C)c2ccnc(-c3ccn[nH]3)c2n1 (stereo not given) + NC1CC1c1ccc(-c2cccc(O)c2)cc1 | 131 | 102 | 94.7 | 106 | 77.5 | 100 | 54.5 | 34.8 | 35.5 | 99.7 | 50.2 | 35 | 31 | 89 | 48.3 | 30.8 | 33.9 | 94.7 | 51 | 30.1 | viability, T/C [31]: 111%; viability, T/C [32]: 101%; viability, T/C [33]: 102%; viability, T/C [34]: 93%; viability, T/C [35]: 94.7%; viability, T/C [36]: 97.8%; viability, T/C [37]: 91.8%; viability, T/C [38]: 99.5%; viability, T/C [22]: 29.5%; viability, T/C [39]: 90.7%; viability, T/C [40]: 90.5%; viability, T/C [25]: 80.9%; viability, T/C [26]: 41.2%; viability, T/C [27]: 27.1%; viability, T/C [28]: 26.1%
COc1ccc([C@@H](O)c2cc(-c3ncnc4cc(N5CCOCC5)ccc34)c(F)cc2Cl)nn1 + NC1CC1c1ccc(-c2cccc(O)c2)cc1 | 5200 | 4860 | 4320 | 3560 | 2740 | 86.7 | 90.9 | 84.9 | 77.7 | 94.5 | 88.2 | 90.4 | 80.2 | 84.4 | 88.8 | 79.8 | 75.2 | 88.6 | 93.9 | 77.3 | viability, T/C [5]: 62.1%; viability, T/C [6]: 34.4%; viability, T/C [11]: 57.9%; viability, T/C [12]: 36.7%; viability, T/C [17]: 54%; viability, T/C [18]: 38.2%; viability, T/C [22]: 69.8%; viability, T/C [23]: 51.8%; viability, T/C [24]: 35.1%; viability, T/C [25]: 83.3%; viability, T/C [26]: 77.6%; viability, T/C [27]: 75.2%; viability, T/C [28]: 71.3%; viability, T/C [29]: 46.6%; viability, T/C [30]: 29.9%
Nc1ncn(C2CC(O)C(CO)O2)c(=O)n1 (stereo not given) + NC1CCC(NC2CC2c2ccccc2)CC1 | > 1000 | > 1000 | > 1000 | > 1000 | > 1000 | 95.6 | 85.5 | 83.1 | 85.2 | 90.2 | 92.2 | 83 | 84.7 | 93.6 | 86.4 | 90.1 | 85.3 | 79.7 | 91.4 | 85.9 | viability, T/C [31]: 91.5%; viability, T/C [32]: 91.2%; viability, T/C [33]: 93.6%; viability, T/C [34]: 93.1%; viability, T/C [35]: 88.6%; viability, T/C [36]: 94.5%; viability, T/C [37]: 87.5%; viability, T/C [38]: 81.1%; viability, T/C [22]: 88.9%; viability, T/C [39]: 84.3%; viability, T/C [40]: 86.9%; viability, T/C [25]: 85.3%; viability, T/C [26]: 88.4%; viability, T/C [27]: 88.2%; viability, T/C [28]: 80.5%
